From publication PMC10223164, “Exploration of the Transglycosylation Activity of Barley Limit Dextrinase for Production of Novel Glycoconjugates” (Molecules, 2023)

Target: T1, HvLD (barley limit dextrinase) (Hordeum vulgare, UniProt Q9FYY0)
T1 sequence (Q9FYY0 1-905 limits assumed): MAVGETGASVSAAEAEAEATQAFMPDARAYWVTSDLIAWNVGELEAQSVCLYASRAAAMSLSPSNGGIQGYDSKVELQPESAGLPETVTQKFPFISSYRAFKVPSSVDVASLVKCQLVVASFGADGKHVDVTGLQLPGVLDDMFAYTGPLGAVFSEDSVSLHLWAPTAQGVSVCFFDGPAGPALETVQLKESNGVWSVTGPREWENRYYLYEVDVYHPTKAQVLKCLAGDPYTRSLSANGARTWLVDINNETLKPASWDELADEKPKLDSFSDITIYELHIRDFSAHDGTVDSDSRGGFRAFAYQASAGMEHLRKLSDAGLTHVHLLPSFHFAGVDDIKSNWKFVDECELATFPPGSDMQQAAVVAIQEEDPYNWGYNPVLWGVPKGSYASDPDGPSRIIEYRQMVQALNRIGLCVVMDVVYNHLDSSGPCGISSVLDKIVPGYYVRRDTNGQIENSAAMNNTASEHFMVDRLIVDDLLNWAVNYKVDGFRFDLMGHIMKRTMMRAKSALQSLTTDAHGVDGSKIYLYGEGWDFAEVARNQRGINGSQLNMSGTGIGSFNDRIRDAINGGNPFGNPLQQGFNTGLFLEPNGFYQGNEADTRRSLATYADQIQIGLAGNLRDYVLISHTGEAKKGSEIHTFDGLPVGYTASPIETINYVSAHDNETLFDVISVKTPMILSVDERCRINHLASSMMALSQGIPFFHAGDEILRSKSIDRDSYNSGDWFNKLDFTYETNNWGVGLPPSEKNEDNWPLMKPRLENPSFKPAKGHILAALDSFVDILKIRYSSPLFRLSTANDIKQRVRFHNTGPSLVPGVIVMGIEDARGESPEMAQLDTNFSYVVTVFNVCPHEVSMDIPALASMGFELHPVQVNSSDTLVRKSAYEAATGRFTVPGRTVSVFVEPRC
Assay: LC-ESI-MS with UV quantification of transglycosylation products
Assay type: biochemical
Conditions: glycosyl donor, 10 mg/mL; acceptors pNP-sugars 8-14 mM; 20 mM sodium acetate pH 5.5; 5 mM CaCl2; 37 °C, 2 h

## OC[C@H]1O[C@H](OC[C@H]2O[C@H](O[C@H]3[C@H](O)[C@@H](O)[C@@H](O[C@H]4[C@H](O)[C@@H](O)[C@@H](OC[C@H]5O[C@H](O[C@H]6[C@H](O)[C@@H](O)[C@@H](O[C@H]7[C@H](O)[C@@H](O)C(O)O[C@@H]7CO)O[C@@H]6CO)[C@H](O)[C@@H](O)[C@@H]5O)O[C@@H]4CO)O[C@@H]3CO)[C@H](O)[C@@H](O)[C@@H]2O)[C@H](O)[C@@H](O)[C@@H]1O (stereo partly drawn) [G1G3G3, 6^3-α-(6^3-α-D-glucosyl-maltotriosyl)-maltotriose]
  LC-ESI-MS with UV quantification of transglycosylation products: G1G3G3 could serve as donor in HvLD TG reactions with all five pNP-sugars
